Source: patent US9618513B2, “Compositions and methods for detecting and treating colorectal cancer” (The Regents of the University of Michigan, priority 2014, dated 2017)

What was measured:
Assay type in all cases: cell-based, human
[1] = system: primary colon cancer cell line SBCA; assay: Proliferation of primary colon cancer cell line SBCA
Method: FIG. 21A-E A. Dot1L/H3K79me2 inhibitor EZP004777 (10 uM) had no effect on SUZ12 expression but reduce Sox2. B. EZP004777 had no effect on primary colon cancer cell line SBCA. C. EZH2 inhibitor DZNep reduced SBCA cell proliferation. D. SUZ12 knockdown reduced H3K27m3 level. E. Effect of I1-22 on tumor sphere assay was analyzed in shEZH2, shSUZ12 and Dznep treated cells.
Three primary colon cancer cell lines (SB, WR, JR) were established from fresh colon tissues. These primary colon cancer cells and DLD1 (ATCC) were studied. Colon cancer cells were treated with recombinant IL-22 (R&D) for different time points. The EZH2 inhibitor DZNep was added in conventional or sphere culture (see, e.g., Kryczek, I., et al., (2012) International journal of cancer 130, 29-39). Tumor cell sphere formation and gene expression were examined (see, e.g., Kryczek, I., et al., (2012) International journal of cancer 130, 29-39).

[2] = system: DOT1L, AFF4, MLLT10; assay: DOT1L complex gene expression by real-time PCR; conditions: DLD-1 and primary colon cancer cells, IL-22 12 hours
Method: (A) IL-22 induces H3K79me2 in colon cancer cells. Colon cancer cells were treated with IL-22 for 48 hours. Total histone modifications were analyzed by western blot. (B, C) DOT1L inhibitor, EPZ004777 suppresses colon cancer sphere formation induced by IL-22. Colon cancer sphere assay was performed in the presence of IL-22 and EPZ004777. Sphere numbers were recorded. DLD-1 cells (B), primary colon cancer cells (C). (n=5, P<0.05). (D, E) IL-22 stimulates DOT1L complex gene expression. Colon cancer cells were cultured for 12 hours with IL-22. DOT1L complex gene expression was quantified by real-time PCR. DLD-1 cells (D), primary colon cancer cells (E). (n=3, P<0.05). (F) DOT1L knock down results in reduced colon cancer sphere formation induced by IL-22. Colon cancer sphere assay was performed with colon cancer cells expressing sh-DOT1L or vector in the presence of IL-22. Sphere numbers were recorded. (n=5, P<0.05). (G-I), IL-22 causes higher occupancy of H3K79me2 on core stem cell gene promoters. H3K79me2-ChIP assay was performed in DLD-1 colon cancer cells cultured with IL-22. One of 3 experiments is shown. […]
The mRNA was quantified by real-time RT-PCR. […] SYBR Green Master Mix was used to detect fluorescence. Relative expression was calculated according to the Ct value with normalization to GAPDH.

[3] = system: cyclin-dependent kinase inhibitors, cyclins and CDK4 in DLD-1; assay: Cell cycle gene expression by real-time PCR
From the text: A. GSEA analysis identifies proliferation pathways have positive correlation with IL-22. B. Cell proliferation maker Ki67 was detected by FACS. C. H^3 Thymidine Incorporation was used to detect the function of IL-22 in cell proliferation. D. Cell number was counted after stimulated with IL-22. E. Cells isolated from colon cancer tissue (Tumor cells and Leukocytes) were stimulated with a-CD3 and […] for 3 days, and supernatant mixed with or without anti-IL-22 antibody was co-cultured with DLD1 cells for 24 h to test cell proliferation. F. Cell cyclin-dependent kinase and kinase inhibitors were analyzed by Real-Time PCR.
The identification of target genes for IL-22 is essential for the determination of the mechanism by which it promotes proliferation in colon cancer cells. As such, the relative mRNA levels in DLD-1 colon cancer cell line was examined by real time quantitative PCR. As expected, IL-22 reduced the expression of the cyclin-dependent kinase inhibitors: p16 (CDKN2A), p18 (CDKN2C), p19 (CDKN2D), p21 (CDKN1A), p27 (CDKN1B), p53 and p57 (CDKN1C).
The mRNAs were quantified by real-time RT-PCR. SYBR Green Master Mix was used to detect fluorescence. Relative expression was calculated according to the Ct value with normalization to GAPDH.

[4] = system: colon cancer cells; assay: Apoptosis by Annexin V FACS
Method: FIG. 20A-D A. Realtime PCR was used to detected the mRNA level of p53, p21, CCNE1 after stimulated with IL-22 in primary colon cancer cell lines. B. The effect of IL-22 on colon cancer cell apoptosis was analyzed by Annexin V using FACS. C.D The effect of IL-22 on 5-Fu induced apoptosis was also analyzed by Annexin V.

Molecule	SBCA cell proliferation [1]	expression of DOT1L, AFF4 [2]	mRNA levels of cyclin A1, D1, D3, E1, E2 and CDK4 ([3]; DLD-1)	expression of cyclin-dependent kinase inhibitors p16, p18, p19, p21, p27, p53 and p57 ([3]; DLD-1, mRNA)	cell apoptosis ([4]; IL-22 combined with 5-FU)	cell apoptosis ([4]; IL-22 stimulation alone)
CC(C)N(CCCNC(=O)Nc1ccc(C(C)(C)C)cc1)C[C@H]1O[C@@H](n2ccc3c(N)ncnc32)[C@H](O)[C@@H]1O [EPZ004777]	no effect	–	–	–	–	–
IL-22: recombinant IL-22 (R&D systems), cytokine interleukin-22	–	consistently promoted	increased	reduced	no change	no change
